Assay results taken from patent US20250034525A1, “CONSTRUCTION METHOD, DETECTION METHOD, AND APPLICATION OF IN VITRO TISSUE MODEL OF DIABETIC CARDIOMYOPATHY” (HUBEI UNIVERSITY, priority 2023, published 2025).

Columns and labels:
Format in all cases: cell-based
[1] = tested on: human pluripotent stem cell-derived cardiomyocytes; test: CCK8 survival rate of human pluripotent stem cell-derived cardiomyocytes (planar monolayer); settings: 250 μM PA, 24 h, versus 30 mM Glucose and 10 nM ET-1 + glucocorticoid, single or combined factors
Description: FIG. 2A-FIG. 2B show the results of confirming the effects of different metabolic factors on survival rate of the cardiomyocytes in the present disclosure.
3) Diluting PA with a final concentration of 250 μM, 500 μM, and 750 μM using cells or EHT medium to stimulate human-derived cardiomyocytes or EHTs. An equivalent amount of ethanol was dissolved in 10% BSA, which was diluted with medium finally as a control solution.
In the present disclosure, firstly, differentiated human cardiomyocytes were paved into planar monolayer cells, and then the cell survival rate was detected by adding 30 mM Glucose, 250 μM PA, 10 nM endothelin (ET-1) and […] glucocorticoid to the medium as single or combined factor(s), respectively, it is identified that the most obvious diabetic stimulus factor for cardiomyocyte injury was PA (FIG. 2A-FIG. 2B). Furthermore, different concentrations of PA were used to stimulate cardiomyocytes, and the concentration and time-dependent effects were evaluated (FIG. 3A). The injury effect of PA was determined through myocardial injury marker LDH (FIG. 3B).

[2] = tested on: human engineered heart tissue (hEHT); test: LDH myocardial injury marker in hEHT model; settings: 500 μM PA, 72 h stimulation
Description: In the present disclosure, an in vitro tissue model of diabetic cardiomyopathy obtained by the above construction method is also provided. According to the disclosure, it is identified that a diabetic cardiomyopathy tissue model is generated with myocardial contractility that ranges from unchanged (1 day) to decreased (3 days), concomitant with the appearance of a myocardial fibrosis phenotype by dynamic stimulation of hEHT with 500 μM PA.
(§1) 2) EHT was stimulated by 500 μM PA, and for the control group, it contained the same concentration of BSA and ethanol. After 24 hours and 72 hours of stimulation, the supernatant and tissue samples were collected for functional detection.

[3] = tested on: human engineered heart tissue (hEHT); test: Contractility detection of human EHT by mechanical assay (force transducer, stretch)
Description: 1) After EHT was constructed and cultured for 5-7 days (the medium was changed every other day), the EHTs had good structure and beat regularly.
as §1
3) A contractility detection system by mechanical assay: the mechanical characteristics of the bundle were detected by using a mechanical measurement platform, in which the bath, platinum electrode, tissue fixation device, and assembly form were self-designed, and other components such as sensors, amplifiers, digital-to-analog converters, data acquisition software, stepper motors, supporting components, temperature controllers and stimulators were all commercially available and assembled in-house after procurement.
4) Experimental steps for contractility detection by mechanical assay: the instrument was preheated for 30 minutes in advance, and the sensor was calibrated with precision weights by gravity. The Tyrode's Solution containing 1.8 mM CaCl2 was put into a 37° C. water bath for preheating in advance, and the platform was set to 37° C. The bundle was dipped into the Tyrode's Solution, and both ends were fixed with specimen needles, wherein one of which was fixed on the sensor and the other was fixed on the bath. Data were collected after the microstructure was balanced for 2 min. Start the electrical stimulator, and stimulate the bundle electrically at a voltage of 10 V and frequencies of 1, 1.5, 2, 2.5, and 3 Hz. Start the stepper motor to control software to start the programmed stretching program, and stretch the bundle from the initial state (8 mm) by 12% (0.96 mm) of the initial length, stretching 2% (0.16 mm) each time, collecting data for 40 s in each stretching state, and collecting contraction force data under different stretching states. After stretching, end the collection and save the data. The collected data were analyzed by the customized program MATLAB software.

[4] = tested on: human engineered heart tissue (hEHT); test: Optical mapping detection of human EHT electrical conduction
Description: 1) The electrode was made of 0.2 mm platinum wire, and the conductive function was tested using a sealed membrane nickel wire interface.
2) Fluo-4/RHOD2 was dissolved in DMSO (dimethyl sulfoxide) with a volume ratio of 1:1 to prepare a stock solution, which was then added into EHT medium at a ratio of 1:1,000 (working solution), incubated at 37° C. for 20 min, followed by washing with DPBS twice, then incubated with serum-free EHT medium at 37° C.
3) Preparation of medium for imaging: 10 μM Blebbistatin was added into the Tyrode's Solution or serum-free EHT medium in a volume ratio of 1:2,000 for imaging. The medium for imaging was added into a PDMS dish, the EHT was fixed on the dish with a specimen needle, put in a 41° C. temperature control chamber, and the electrode was put on one side of the EHT; an optical mapping camera was used for formal imaging, and the preview speed of 600 ms was recorded in 10 seconds, then recording was conducted in the cases where there was no electrical stimulation and 1 Hz electrical stimulation, respectively, in which the laser intensity was MAX: 12-16%.
The collected data were analyzed by optical mapping software.

[5] = tested on: human engineered heart tissue (hEHT); test: H&E staining and immunofluorescence staining of human EHT (fibrosis)
Description: For the morphological and histological observation after Bundle stimulation, the tissue was first treated by conventional paraffin embedding methods, and then the tissue was stained by basic staining and immunofluorescence staining after slicing. The specific steps were as follows: • (1) Cleaning the bundle twice using DPBS without calcium and magnesium ions. • (2) Fixing the bundle with 4% PFA (Paraformaldehyde) at room temperature for 15 min. • (3) Placing the fixed bundle in a paraffin tissue embedding frame and rinsing it with running water for 2 h. • (4) The […] bundle was subjected to gradient dehydrating and wax dipping using a Dewaxer (Hisure Scientific Co., Ltd.) with a total of 12 cylinders under the following conditions: 70% ethanol for 1 h, 80% ethanol for 1 h, 80% ethanol for 0.5 h, 90% ethanol for 0.5 h, 90% ethanol for 0.5 h, 100% ethanol for 0.5 h, xylene for 0.5 h, xylene for 0.5 h, paraffin at 63° C. for 5 min, paraffin at 63° C. for 5 min and paraffin at 63° C. for 5 min. • (5) After the dehydrated Bundle was placed at the bottom of the iron frame molding tool with an appropriate size, the plastic embedding frame was placed on the iron frame molding tool, and then placed on the freezing platform. […] After adding the anti-fluorescence quencher dropwise, the coverslip was covered, and the slide was mounted with nail polish.

[6] = Empagliflozin added with 500 μM PA, 24 hours' stimulation

Row | SMILES | cardiomyocyte survival rate (CCK8) [1] | LDH [2] | abnormal relaxation (diastolic) peak ([3]; 500 μM PA, 24 h stimulation) | myocardial relaxation time (diastolic duration) ([3]; 500 μM PA, 24 h stimulation) | positive contractility (contraction force) ([3]; 500 μM PA, 24 h stimulation) | abnormal peaks (diastolic) ([3]; 500 μM PA, 72 h stimulation) | inotropic force (contraction force) ([3]; 500 μM PA, 72 h stimulation) | relaxation time (diastolic duration) ([3]; 500 μM PA, 72 h stimulation) | APD50 ([4]; 500 μM PA, 6 h stimulation) | APD80 ([4]; 500 μM PA, 6 h stimulation) | contraction amplitude ([4]; 500 μM PA, 6 h stimulation) | electric signal conduction velocity ([4]; 500 μM PA, 6 h stimulation) | pathological changes and level of fibrosis inside human EHT ([5]; 24 hours after PA stimulation) | fibrosis inside the heart tissue ([5]; 72 hours after PA stimulation) | number of abnormal diastolic peaks of PA-stimulated hEHT ([3]; Empagliflozin added with 500 μM PA, under stretch conditions) | APD80 of PA-stimulated human EHT [4, 6] | contraction amplitude of PA-stimulated human EHT [4, 6] | electric signal conduction velocity of PA-stimulated human EHT [4, 6]
1 | CCCCCCCCCCCCCCCC(=O)O [PA, palmitic acid] | lowest | increased significantly | abnormal relaxation peak | prolonged | did not affect | more frequent | significant decrease | more frequent prolongation | obviously increased | obviously increased | not decreased | not decreased | no obvious pathological changes and changes in the level of fibrosis | obvious fibrosis | – | – | – | –
2 | OC[C@H]1O[C@@H](c2ccc(Cl)c(Cc3ccc(O[C@H]4CCOC4)cc3)c2)[C@H](O)[C@@H](O)[C@@H]1O [Empagliflozin] | – | – | – | – | – | – | – | – | – | – | – | – | – | – | reduced number | improved | effectively recover | effectively recover
